From patent publication US5140009A (Tap Pharmaceuticals, Inc., priority 1990, dated 1992)
Numbered stars: 1 amine (or outer) side, 2 acyl side, 3 side chain; on linkers, the order of the positions; unused ones are H or OH. Square brackets hold non-standard residues; d marks the D form. Side chains are listed from the residue outwards. Peptide text beside a SMILES is read from it. * marks the point of attachment. Propanoyl(3-(1-naphthyl)) = O=C(CCc1cccc2ccccc12)*; Propanoyl(3-indol-3-yl) = O=C(CCc1c[nH]c2ccccc12)*; Acetyl(1-adamantyl) = O=C(CC12CC3CC(CC(C3)C1)C2)*; X8 = CN1CCN(S(=O)(=O)N[C@@H](Cc2ccccc2)C(=O)*)CC1; Propanoyl(3-(3,4-F2Ph)) = O=C(CCc1ccc(F)c(F)c1)*; Propanoyl(3-(4-F-phenyl)) = O=C(CCc1ccc(F)cc1)*; dTrp(5-F) = N[C@H](Cc1c[nH]c2ccc(F)cc12)C(=O)O; Propanoyl(3-(4-Cl-Ph)) = O=C(CCc1ccc(Cl)cc1)*; dPhe(4-Cl) = N[C@H](Cc1ccc(Cl)cc1)C(=O)O; 1Nal = N[C@@H](Cc1cccc2ccccc12)C(=O)O; Desaminohistidyl = O=C(CCc1c[nH]cn1)*; d1Nal = N[C@H](Cc1cccc2ccccc12)C(=O)O; d2Nal = N[C@H](Cc1ccc2ccccc2c1)C(=O)O; Lys(iPr) = CC(C)NCCCC[C@H](N)C(=O)O; NMeY = CN[C@@H](Cc1ccc(O)cc1)C(=O)O; dBta = N[C@H](Cc1csc2ccccc12)C(=O)O; NMeF = CN[C@@H](Cc1ccccc1)C(=O)O; Nicotinoyl = O=C(c1cccnc1)*; X5 = C1CCC(N(C2CCCCC2)*)CC1; Morpholide = C1CN(*)CCO1; CO = O=C([*:1])[*:2]; Sar = CNCC(=O)O

These molecules were tested against T1, LHRH receptors (Rattus norvegicus, UniProt P30969) (assay: Receptor Binding (radioligand receptor binding assay)). Details: Receptor Binding pkI, table 3; rat pituitary membranes, radioiodinated [D-Leu^6 -des Gly^10 ]-LHRH ethyl amide 50 pM, 2 hours at 4° C.
T1 construct: Pituitary membranes containing LHRH receptors are prepared in batches from quick-frozen rat pituitaries; tissue Hilltop Labs; host or cells: rat pituitary membranes
T1 sequence (P30969 1-327): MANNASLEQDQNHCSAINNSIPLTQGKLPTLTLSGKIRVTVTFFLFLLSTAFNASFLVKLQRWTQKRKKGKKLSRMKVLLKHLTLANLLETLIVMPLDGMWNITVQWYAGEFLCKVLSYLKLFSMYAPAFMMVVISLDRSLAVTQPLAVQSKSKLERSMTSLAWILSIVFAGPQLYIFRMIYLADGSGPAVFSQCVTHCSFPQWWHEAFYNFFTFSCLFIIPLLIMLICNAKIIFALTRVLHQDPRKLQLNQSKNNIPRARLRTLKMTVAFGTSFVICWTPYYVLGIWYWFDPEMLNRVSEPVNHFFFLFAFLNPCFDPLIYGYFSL

Structure (SMILES)	Ki
CCNC(=O)[C@@H]1CCCN1C(=O)[C@H](CCCNC(=N)N)NC(=O)[C@H](CC(C)C)NC(=O)[C@@H](Cc1c[nH]c2ccccc12)NC(=O)[C@H](Cc1ccc(O)cc1)NC(=O)[C@H](CO)NC(=O)[C@H](Cc1c[nH]c2ccccc12)NC(=O)[C@H](Cc1ccccc1)NC(=O)N(C1CCCCC1)C1CCCCC1 [Compound 126, (2-9)[N-(N-alpha-Dicyclohexylaminocarbonyl)-Phe^2 -D-Trp^6 -Pro^9 NHEt]LHRH] ({X5-CO}-FWSY[dW]LRP-NHEt)	37.2 nM

Same assay, conditions: table 3; rat pituitary membranes, radioiodinated [D-Leu^6 -des Gly^10 ]-LHRH ethyl amide 50 pM, 2 hours at 4° C.; read-out: Receptor Binding pkI (converted)

Structure (SMILES)	Ki
CCNC(=O)[C@@H]1CCCN1C(=O)[C@H](CCCNC(=N)N)NC(=O)[C@H](CC(C)C)NC(=O)[C@@H](Cc1c[nH]c2ccccc12)NC(=O)[C@H](Cc1ccc(O)cc1)NC(=O)[C@H](CO)NC(=O)[C@H](Cc1c[nH]c2ccccc12)NC(=O)[C@H](Cc1ccccc1)NC(C)=O [Compound 72, N-Acetyl-Phe-Trp-Ser-Tyr-D-Trp-Leu-Arg-ProNHEt] (Ac-FWSY[dW]LRP-NHEt)	0.166 nM
CCNC(=O)[C@@H]1CCCN1C(=O)[C@H](CCCNC(=N)N)NC(=O)[C@H](CC(C)C)NC(=O)[C@@H](Cc1c[nH]c2ccccc12)NC(=O)[C@H](Cc1ccc(O)cc1)N(C)C(=O)[C@H](CO)NC(=O)CC12CC3CC(CC(C3)C1)C2 [Compound 81, N-[(1-Adamantyl)acetyl]-Ser-N-Me-Tyr-D-Trp-Leu-Arg-Pro -NHEt] ({Acetyl(1-adamantyl)}-S[NMeY][dW]LRP-NHEt)	0.589 nM
CCNC(=O)[C@@H]1CCCN1C(=O)[C@H](CCCN=C(N)N)NC(=O)[C@H](CC(C)C)NC(=O)[C@@H](Cc1c[nH]c2ccccc12)NC(=O)[C@H](Cc1ccc(O)cc1)NC(=O)[C@H](CO)NC(=O)[C@H](Cc1ccc(O)cc1)NC(=O)CCc1ccc(Cl)cc1 [Compound 87, (3-9)[N-(3-(4-Chlorophenyl)propionyl) -Tyr^3 -D-Trp^6 -Pro^9 NHEt]LHRH] ({Propanoyl(3-(4-Cl-Ph))}-YSY[dW]LRP-NHEt)	0.129 nM
CCNC(=O)[C@@H]1CCCN1C(=O)[C@H](CCCNC(=N)N)NC(=O)[C@H](CC(C)C)NC(=O)[C@@H](Cc1c[nH]c2ccccc12)NC(=O)[C@H](Cc1ccc(O)cc1)NC(=O)[C@H](CO)NC(=O)[C@H](Cc1c[nH]c2ccccc12)NC(=O)CCc1c[nH]cn1 [Compound 61, N-[3-(4-Imidazolyl)propionyl]-Trp-Ser-Tyr-D-Trp-Leu-Arg-ProNHEt] (Desaminohistidyl-WSY[dW]LRP-NHEt)	0.427 nM
CCNC(=O)[C@@H]1CCCN1C(=O)[C@H](CCCNC(=N)N)NC(=O)[C@H](CC(C)C)NC(=O)[C@@H](CCCNC(=N)N)NC(=O)[C@H](Cc1ccc(O)cc1)NC(=O)[C@H](CO)NC(=O)CCc1cccc2ccccc12 [Compound 44, (4-9)[N-(3-(1-Naphthyl)propionyl)-Ser^4 -D-Arg^6 -Pro^9 -NHEt]LHRH] ({Propanoyl(3-(1-naphthyl))}-SY[dR]LRP-NHEt)	3.98 nM
CCNC(=O)[C@@H]1CCCN1C(=O)[C@H](CCCNC(=N)N)NC(=O)[C@H](CC(C)C)NC(=O)[C@@H](Cc1c[nH]c2ccccc12)NC(=O)[C@H](Cc1ccc(O)cc1)NC(=O)[C@H](CO)NC(=O)[C@H](Cc1cccc2ccccc12)NC(=O)N1CCOCC1 [Compound 137, N-(N-alpha-Morpholinocarbonyl)-1-Nal-Ser-Tyr-D-Trp-Leu -Arg-ProNHEt] ({Morpholide-CO}-[1Nal]SY[dW]LRP-NHEt)	0.263 nM
CCNC(=O)[C@@H]1CCCN1C(=O)[C@H](CCCNC(=N)N)NC(=O)[C@H](CC(C)C)NC(=O)[C@@H](Cc1c[nH]c2ccccc12)NC(=O)[C@H](Cc1ccc(O)cc1)NC(=O)[C@H](CO)NC(=O)C(Cc1cccc2ccccc12)NC(C)=O (single isomer, unassigned) [Compound 82, (3-9)[N-Ac-1-Nal^3 -D-Trp^6 -Pro^9 NHEt]LHRH]	0.295 nM
CCNC(=O)[C@@H]1CCCN1C(=O)[C@H](CCCNC(=N)N)NC(=O)[C@H](CC(C)C)NC(=O)[C@@H](Cc1ccc2ccccc2c1)NC(=O)[C@H](Cc1ccc(O)cc1)NC(=O)[C@H](CO)NC(=O)[C@@H](Cc1c[nH]c2ccccc12)NC(=O)CCc1ccc(F)cc1 [Compound 94, (3-9)[N-(3-(4-Fluorophenyl)propionyl) -D-Trp^3 -D-2-Nal^6 -Pro^9 NHEt]LHRH] ({Propanoyl(3-(4-F-phenyl))}-[dW]SY[d2Nal]LRP-NHEt)	0.309 nM
CC(C)C[C@H](NC(=O)[C@@H](Cc1ccc2ccccc2c1)NC(=O)[C@H](Cc1ccc(O)cc1)NC(=O)[C@H](CO)NC(=O)CCc1c[nH]c2ccccc12)C(=O)N[C@@H](CCCNC(=N)N)C(=O)N1CCC[C@H]1C(=O)NCC(N)=O [Compound 47, N-(3-(3-Indole)propionyl)-Ser-Tyr-D-2-Nal-Leu-Arg-Pro-Gly-NH2] ({Propanoyl(3-indol-3-yl)}-SY[d2Nal]LRPG-NH2)	4.27 nM
CCNC(=O)[C@@H]1CCCN1C(=O)[C@H](CCCNC(=N)N)NC(=O)[C@H](CC(C)C)NC(=O)[C@@H](Cc1c[nH]c2ccccc12)NC(=O)[C@H](Cc1ccc(O)cc1)NC(=O)[C@H](CO)NC(=O)[C@H](Cc1c[nH]c2ccccc12)NC(=O)[C@H](Cc1ccccc1)NS(=O)(=O)N1CCN(C)CC1 [Compound 129, N-(N-alpha-(N-Methylpiperazinosulfonyl))-Phe-Trp-Ser-Tyr -D-Trp-Leu-Arg-ProNHEt] (X8-WSY[dW]LRP-NHEt)	1.86 nM

Same assay, conditions: table 4; rat pituitary membranes, radioligand 50 pM, 2 hours at 4° C.; read-out: Receptor Binding pkI (converted)

Structure (SMILES)	Ki
CC(C)C[C@H](NC(=O)[C@@H](CCCCNC(=O)N1CCOCC1)NC(=O)[C@H](Cc1ccc(O)cc1)N(C)C(=O)[C@H](CO)NC(=O)[C@@H](Cc1cccc2ccccc12)NC(=O)CCc1ccc(F)cc1)C(=O)N[C@@H](CCCNC(=N)N)C(=O)N1CCC[C@H]1C(=O)N[C@H](C)C(N)=O [Compound 210, N-(3-(4-Fluorophenyl)propionyl)-D-1-Nal-Ser-NMeTyr-D-Lys(N-epsilon-morpholinecarbonyl)-Leu-Arg-Pro-D-AlaNH2] ({Propanoyl(3-(4-F-phenyl))}-[d1Nal]S[NMeY][dK]([CO-Morpholide])LRP[dA]-NH2)	0.00891 nM
CCNC(=O)[C@@H]1CCCN1C(=O)[C@H](CCCN=C(N)N)NC(=O)[C@H](CC(C)C)NC(=O)[C@@H](Cc1c[nH]c2ccccc12)NC(=O)[C@H](Cc1ccc(O)cc1)NC(=O)[C@H](CO)NC(=O)[C@@H](Cc1c[nH]c2ccccc12)NC(=O)CCc1ccc(F)c(F)c1 [Compound 151, (3-9)[N-(3-(3,4-diFluorophenyl)propionyl) -D-Trp^3,6 -Pro^9 NHEt]LHRH] ({Propanoyl(3-(3,4-F2Ph))}-[dW]SY[dW]LRP-NHEt)	0.0282 nM
CCNC(=O)[C@@H]1CCCN1C(=O)[C@H](CCCNC(=N)N)NC(=O)[C@H](CC(C)C)NC(=O)[C@@H](Cc1c[nH]c2ccccc12)NC(=O)[C@H](Cc1ccc(O)cc1)NC(=O)[C@H](CO)NC(=O)[C@@H](Cc1ccc(Cl)cc1)NC(=O)CCc1ccc(F)cc1 [Compound 140, (3-9) [N-(3-(4-Fluorophenyl)propionyl) -D-4-Cl-Phe^3 -D-Trp^6 -Pro^9 NHEt]LHRH] ({Propanoyl(3-(4-F-phenyl))}-[dPhe(4-Cl)]SY[dW]LRP-NHEt)	0.0891 nM
CCNC(=O)[C@@H]1CCCN1C(=O)[C@H](CCCNC(=N)N)NC(=O)[C@H](CC(C)C)NC(=O)[C@@H](Cc1c[nH]c2ccccc12)NC(=O)[C@H](Cc1ccc(O)cc1)NC(=O)[C@H](CO)NC(=O)[C@@H](Cc1c[nH]c2ccc(F)cc12)NC(=O)CCc1ccc(F)cc1 [Compound 143, (3-9)[N-(3-(4-Fluorophenyl)propionyl)-D -5-F-Trp^3 -D-Trp^6 -Pro^9 NHEt]LHRH] ({Propanoyl(3-(4-F-phenyl))}-[dTrp(5-F)]SY[dW]LRP-NHEt)	0.049 nM
CC(C)C[C@H](NC(=O)[C@@H](CCCCNC(=O)c1cccnc1)NC(=O)[C@H](Cc1ccccc1)N(C)C(=O)[C@H](CO)NC(=O)[C@@H](Cc1cccc2ccccc12)NC(=O)CCc1ccc(F)cc1)C(=O)N[C@@H](CCCCNC(C)C)C(=O)N1CCC[C@H]1C(=O)N[C@H](C)C(N)=O [Compound 205, (3-10)[N-(3-(4-Fluorophenyl)propionyl)-D-1-Nal^3 -NMePhe^5 -D-Lys^6 (N-epsilon-nicotinyl)-D-Ala^10]LHRH] ({Propanoyl(3-(4-F-phenyl))}-[d1Nal]S[NMeF][dK](Nicotinoyl)L[Lys(iPr)]P[dA]-NH2)	0.0302 nM
CC(C)C[C@H](NC(=O)[C@@H](CCCCNC(=O)c1cccnc1)NC(=O)[C@H](Cc1ccc(O)cc1)N(C)C(=O)[C@H](CO)NC(=O)[C@@H](Cc1csc2ccccc12)NC(=O)CCc1ccc(F)cc1)C(=O)N[C@@H](CCCCNC(C)C)C(=O)N1CCC[C@H]1C(=O)N[C@H](C)C(N)=O [Compound 253, (3-10)[N-(3-(4-Fluorophenyl)propionyl)-D-3-Bal^3 -NMeTyr^5 -D-Lys^6 (N-epsilon-nicotinyl)-Lys^8 (N-epsilon-isopropyl)-D-Ala^10]LHRH] ({Propanoyl(3-(4-F-phenyl))}-[dBta]S[NMeY][dK](Nicotinoyl)L[Lys(iPr)]P[dA]-NH2)	0.00933 nM
CC(C)C[C@H](NC(=O)[C@@H](CCCCNC(=O)c1cccnc1)NC(=O)[C@H](Cc1ccc(O)cc1)N(C)C(=O)[C@H](CO)NC(=O)[C@@H](Cc1cccc2ccccc12)NC(=O)CCc1ccc(F)cc1)C(=O)N[C@@H](CCCCNC(C)C)C(=O)N1CCC[C@H]1C(=O)N(C)CC(N)=O [Compound 255, N-(3-(4-Fluorophenyl)propionyl)-D-1-Nal-Ser-NMeTyr-D-Lys(N-epsilon-nicotinyl)-Leu-Lys(N-epsilon-isopropyl)-Pro-SarNH2] ({Propanoyl(3-(4-F-phenyl))}-[d1Nal]S[NMeY][dK](Nicotinoyl)L[Lys(iPr)]P[Sar]-NH2)	0.0151 nM
